In patent US20230085307A1, “PYRIDAZINONE COMPOUND AND HERBICIDE” (NISSAN CHEMICAL CORPORATION, priority 2019, published 2023):

Experiments:
barnyard grass [1] = assay: Test Example 3: herbicidal effect by foliage application, Wagner pot (Table 18, symbol H); type: in vivo, barnyard grass (Echinochloa crus-galli)
Method in brief: (§1)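 Plants were sown in alluvial soil held under 0.1–0.5 cm standing water and grown 14 days in a greenhouse at 25–30 °C. An emulsifiable formulation, water-diluted to the set dose, was then sprayed onto the foliage, and effects were scored three weeks later using previously defined criteria.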

Chinese sprangletop = assay: Test Example 3: herbicidal effect by foliage application, Wagner pot (Table 18, symbol D); type: in vivo, chinese sprangletop (Leptochloa chinensis)
Method in brief: as §1

southern crabgrass [2] = assay: Test Example 4: herbicidal effect by soil treatment (Table 19, symbol F); type: in vivo, southern crabgrass (Digitaria ciliaris)
Method in brief: (§2)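 Soil-surface application: an emulsion agent diluted with water to the predetermined dose is sprayed uniformly over seeds lying under roughly 1.5 cm of sterilized diluvial soil. Boxes stay in a greenhouse at 25° C. to 30° C. Three weeks later, each species is graded on previously defined criteria.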

green foxtail [3] = assay: Test Example 4: herbicidal effect by soil treatment (Table 19, symbol G); type: in vivo, green foxtail (Setaria viridis)
Method in brief: as §2

barnyard grass [4] = assay: Test Example 4: herbicidal effect by soil treatment (Table 19, symbol H); type: in vivo, barnyard grass (Echinochloa crus-galli)
Method in brief: as §2

wild oat [5] = assay: Test Example 4: herbicidal effect by soil treatment (Table 19, symbol I); type: in vivo, wild oat (Avena fatua)
Method in brief: as §2

blackgrass [6] = assay: Test Example 4: herbicidal effect by soil treatment (Table 19, symbol J); type: in vivo, blackgrass (Alopecurus myosuroides)
Method in brief: as §2

Italian ryegrass [7] = assay: Test Example 4: herbicidal effect by soil treatment (Table 19, symbol K); type: in vivo, Italian ryegrass (Lolium multiflorum)
Method in brief: as §2

windgrass [8] = assay: Test Example 4: herbicidal effect by soil treatment (Table 19, symbol L); type: in vivo, windgrass (Apera spica-venti)
Method in brief: as §2

velvetleaf [9] = assay: Test Example 4: herbicidal effect by soil treatment (Table 19, symbol M); type: in vivo, velvetleaf (Abutilon theophrasti)
Method in brief: as §2

redroot pigweed [10] = assay: Test Example 4: herbicidal effect by soil treatment (Table 19, symbol N); type: in vivo, redroot pigweed (Amaranthus retroflexus)
Method in brief: as §2

lambsquarters [11] = assay: Test Example 4: herbicidal effect by soil treatment (Table 19, symbol O); type: in vivo, lambsquarters (Chenopodium album)
Method in brief: as §2

chickweed [12] = assay: Test Example 4: herbicidal effect by soil treatment (Table 19, symbol P); type: in vivo, common chickweed (Stellaria media)
Method in brief: as §2

persian speedwell [13] = assay: Test Example 4: herbicidal effect by soil treatment (Table 19, symbol R); type: in vivo, Persian speedwell (Veronica persica)
Method in brief: as §2

southern crabgrass [14] = assay: Test Example 5: herbicidal effect by foliage application, plastic box (Table 20, symbol F); type: in vivo, southern crabgrass (Digitaria ciliaris); details: foliage application
Method in brief: (§3)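 Sow seeds spot-wise in sterilized diluvial soil; cover with ~1.5 cm soil. Grow 14 days in greenhouse, 25° C. to 30° C. Spray foliage with emulsion diluted to predetermined amount. Rate effect after 3 weeks.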

green foxtail [15] = assay: Test Example 5: herbicidal effect by foliage application, plastic box (Table 20, symbol G); type: in vivo, green foxtail (Setaria viridis); details: foliage application
Method in brief: as §3

barnyard grass [16] = assay: Test Example 5: herbicidal effect by foliage application, plastic box (Table 20, symbol H); type: in vivo, barnyard grass (Echinochloa crus-galli); details: foliage application
Method in brief: as §3

wild oat [17] = assay: Test Example 5: herbicidal effect by foliage application, plastic box (Table 20, symbol I); type: in vivo, wild oat (Avena fatua); details: foliage application
Method in brief: as §3

blackgrass [18] = assay: Test Example 5: herbicidal effect by foliage application, plastic box (Table 20, symbol J); type: in vivo, blackgrass (Alopecurus myosuroides); details: foliage application
Method in brief: as §3

Italian ryegrass [19] = assay: Test Example 5: herbicidal effect by foliage application, plastic box (Table 20, symbol K); type: in vivo, Italian ryegrass (Lolium multiflorum); details: foliage application
Method in brief: as §3

windgrass [20] = assay: Test Example 5: herbicidal effect by foliage application, plastic box (Table 20, symbol L); type: in vivo, windgrass (Apera spica-venti); details: foliage application
Method in brief: as §3

velvetleaf [21] = assay: Test Example 5: herbicidal effect by foliage application, plastic box (Table 20, symbol M); type: in vivo, velvetleaf (Abutilon theophrasti); details: foliage application
Method in brief: as §3

redroot pigweed [22] = assay: Test Example 5: herbicidal effect by foliage application, plastic box (Table 20, symbol N); type: in vivo, redroot pigweed (Amaranthus retroflexus); details: foliage application, AAH 320 g/ha, evaluated three weeks after application
Method in brief: as §3

lambsquarters [23] = assay: Test Example 5: herbicidal effect by foliage application, plastic box (Table 20, symbol O); type: in vivo, lambsquarters (Chenopodium album); details: foliage application
Method in brief: as §3

chickweed [24] = assay: Test Example 5: herbicidal effect by foliage application, plastic box (Table 20, symbol P); type: in vivo, common chickweed (Stellaria media); details: foliage application, AAH 320 g/ha, evaluated three weeks after application
Method in brief: as §3

false cleavers = assay: Test Example 5: herbicidal effect by foliage application, plastic box (Table 20, symbol Q); type: in vivo, false cleavers (Galium spurium); details: foliage application
Method in brief: as §3

persian speedwell [25] = assay: Test Example 5: herbicidal effect by foliage application, plastic box (Table 20, symbol R); type: in vivo, Persian speedwell (Veronica persica); details: foliage application
Method in brief: as §3

rice flat sedge = assay: Test Example 3: herbicidal effect by foliage application, Wagner pot (Table 18, symbol E); type: in vivo, rice flat sedge (Cyperus iria); details: amount of applied herbicide 147 g/ha
Method in brief: as §1

[26] = amount of applied herbicide 320 g/ha
[27] = AAH 320 g/ha, evaluated three weeks after application
[28] = amount of applied herbicide 147 g/ha
[29] = 147 g/ha, three weeks after application

In the case of `Cc1nn(C)c(=O)c(-c2c(-c3ccc(S(=O)(=O)C(C)C)cc3)sc3ccc(F)cc23)c1O` [2-259], the “herbicidal effect on H: barnyard grass” value (barnyard grass [1]; [26]) is reported as 4 (Herbicidal rate of 70% or more and less than 90%), the “herbicidal effect on D: Chinese sprangletop” value (Chinese sprangletop; [26]) is reported as 3 (Herbicidal rate of 40% or more and less than 70%) and the “herbicidal effect on F: southern crabgrass” value (southern crabgrass [2]; [26]) is reported as 0 (Herbicidal rate of 5% or less (almost no effect)). The “herbicidal effect on G: green foxtail” value (green foxtail [3]; [26]) was 1 (Herbicidal rate of 5% or more and less than 20%), the “herbicidal effect on H: barnyard grass” value (barnyard grass [4]; [26]) was 0 (Herbicidal rate of 5% or less (almost no effect)) and the “herbicidal effect on I: wild oat” value (wild oat [5]; [26]) was 0 (Herbicidal rate of 5% or less (almost no effect)). The “herbicidal effect on J: blackgrass” value (blackgrass [6]; [26]) was 4 (Herbicidal rate of 70% or more and less than 90%), the “herbicidal effect on K: Italian ryegrass” value (Italian ryegrass [7]; [26]) was 4 (Herbicidal rate of 70% or more and less than 90%) and the “herbicidal effect on L: windgrass” value (windgrass [8]; [26]) was 0 (Herbicidal rate of 5% or less (almost no effect)). For the same compound, the “herbicidal effect on M: velvetleaf” value (velvetleaf [9]; [26]) was 3 (Herbicidal rate of 40% or more and less than 70%), the “herbicidal effect on N: redroot pigweed” value (redroot pigweed [10]; [26]) was 4 (Herbicidal rate of 70% or more and less than 90%) and the “herbicidal effect on O: lambsquarters” value (lambsquarters [11]; [26]) was 3 (Herbicidal rate of 40% or more and less than 70%). For the same compound, the “herbicidal effect on P: chickweed” value (chickweed [12]; [26]) was 1 (Herbicidal rate of 5% or more and less than 20%), the “herbicidal effect on R: persian speedwell” value (persian speedwell [13]; [26]) was 5 (Herbicidal rate of 90% or more (almost completely withered)) and the “F: southern crabgrass, herbicidal effect (criteria 0-5)” value (southern crabgrass [14]; [27]) was 4 (Herbicidal rate of 70% or more and less than 90%). The “G: green foxtail, herbicidal effect (criteria 0-5)” value (green foxtail [15]; [27]) was 3 (Herbicidal rate of 40% or more and less than 70%), the “H: barnyard grass, herbicidal effect (criteria 0-5)” value (barnyard grass [16]; [27]) was 3 (Herbicidal rate of 40% or more and less than 70%) and the “I: wild oat, herbicidal effect (criteria 0-5)” value (wild oat [17]; [27]) was 4 (Herbicidal rate of 70% or more and less than 90%). For the same compound, the “J: blackgrass, herbicidal effect (criteria 0-5)” value (blackgrass [18]; [27]) was 4 (Herbicidal rate of 70% or more and less than 90%), the “K: Italian ryegrass, herbicidal effect (criteria 0-5)” value (Italian ryegrass [19]; [27]) was 4 (Herbicidal rate of 70% or more and less than 90%) and the “L: windgrass, herbicidal effect (criteria 0-5)” value (windgrass [20]; [27]) was 1 (Herbicidal rate of 5% or more and less than 20%). The “M: velvetleaf, herbicidal effect (criteria 0-5)” value (velvetleaf [21]; [27]) was 4 (Herbicidal rate of 70% or more and less than 90%), the “N: redroot pigweed, herbicidal effect (criteria 0-5)” value (redroot pigweed [22]) was 5 (Herbicidal rate of 90% or more (almost completely withered)) and the “O: lambsquarters, herbicidal effect (criteria 0-5)” value (lambsquarters [23]; [27]) was 4 (Herbicidal rate of 70% or more and less than 90%). For the same compound, the “P: chickweed, herbicidal effect (criteria 0-5)” value (chickweed [24]) was 5 (Herbicidal rate of 90% or more (almost completely withered)), the “Q: false cleavers, herbicidal effect (criteria 0-5)” value (false cleavers; [27]) was 4 (Herbicidal rate of 70% or more and less than 90%) and the “R: persian speedwell, herbicidal effect (criteria 0-5)” value (persian speedwell [25]; [27]) was 5 (Herbicidal rate of 90% or more (almost completely withered)).
With `COc1ccccc1-c1oc2ccc(C)cc2c1-c1c(O)c(C)nn(C)c1=O` [9-006] the “Herbicidal effect on H (barnyard grass), foliage application” value (barnyard grass [1]; [28]) was 1 (Herbicidal rate of 5% or more and less than 20%), the “Herbicidal effect on D (Chinese sprangletop), foliage application” value (Chinese sprangletop; [28]) was 0 (Herbicidal rate of 5% or less (almost no effect)) and the “Herbicidal effect on E (rice flat sedge), foliage application” value (rice flat sedge) was 2 (Herbicidal rate of 20% or more and less than 40%). For the same compound, the “F: southern crabgrass, herbicidal effect grade” value (southern crabgrass [2]; [28]) was 0 (Herbicidal rate of 5% or less (almost no effect)), the “G: green foxtail, herbicidal effect grade” value (green foxtail [3]; [28]) was 0 (Herbicidal rate of 5% or less (almost no effect)) and the “H: barnyard grass, herbicidal effect grade” value (barnyard grass [4]; [28]) was 0 (Herbicidal rate of 5% or less (almost no effect)). For the same compound, the “I: wild oat, herbicidal effect grade” value (wild oat [5]; [28]) was 0 (Herbicidal rate of 5% or less (almost no effect)), the “J: blackgrass, herbicidal effect grade” value (blackgrass [6]; [28]) was 0 (Herbicidal rate of 5% or less (almost no effect)) and the “K: Italian ryegrass, herbicidal effect grade” value (Italian ryegrass [7]; [28]) was 0 (Herbicidal rate of 5% or less (almost no effect)). The “L: windgrass, herbicidal effect grade” value (windgrass [8]; [28]) was 0 (Herbicidal rate of 5% or less (almost no effect)), the “M: velvetleaf, herbicidal effect grade” value (velvetleaf [9]; [28]) was 0 (Herbicidal rate of 5% or less (almost no effect)) and the “N: redroot pigweed, herbicidal effect grade” value (redroot pigweed [10]; [28]) was 3 (Herbicidal rate of 40% or more and less than 70%). The “O: lambsquarters, herbicidal effect grade” value (lambsquarters [11]; [28]) was 0 (Herbicidal rate of 5% or less (almost no effect)), the “P: chickweed, herbicidal effect grade” value (chickweed [12]; [28]) was 0 (Herbicidal rate of 5% or less (almost no effect)) and the “R: persian speedwell, herbicidal effect grade” value (persian speedwell [13]; [28]) was 0 (Herbicidal rate of 5% or less (almost no effect)). The “herbicidal effect on southern crabgrass (F)” value (southern crabgrass [14]; [29]) was 0 (Herbicidal rate of 5% or less (almost no effect)), the “herbicidal effect on green foxtail (G)” value (green foxtail [15]; [29]) was 0 (Herbicidal rate of 5% or less (almost no effect)) and the “herbicidal effect on barnyard grass (H)” value (barnyard grass [16]; [29]) was 0 (Herbicidal rate of 5% or less (almost no effect)). The “herbicidal effect on wild oat (I)” value (wild oat [17]; [29]) was 0 (Herbicidal rate of 5% or less (almost no effect)), the “herbicidal effect on blackgrass (J)” value (blackgrass [18]; [29]) was 0 (Herbicidal rate of 5% or less (almost no effect)) and the “herbicidal effect on Italian ryegrass (K)” value (Italian ryegrass [19]; [29]) was 0 (Herbicidal rate of 5% or less (almost no effect)). For the same compound, the “herbicidal effect on windgrass (L)” value (windgrass [20]; [29]) was 0 (Herbicidal rate of 5% or less (almost no effect)), the “herbicidal effect on velvetleaf (M)” value (velvetleaf [21]; [29]) was 2 (Herbicidal rate of 20% or more and less than 40%) and the “herbicidal effect on lambsquarters (O)” value (lambsquarters [23]; [29]) was 0 (Herbicidal rate of 5% or less (almost no effect)). The “herbicidal effect on false cleavers (Q)” value (false cleavers; [29]) was 3 (Herbicidal rate of 40% or more and less than 70%) and the “herbicidal effect on persian speedwell (R)” value (persian speedwell [25]; [29]) was 0 (Herbicidal rate of 5% or less (almost no effect)).
